{
  "source": "patent US20140309168A1",
  "about": "“MODIFIED PEPTIDES AND PROTEINS” (AmideBio, LLC, priority 2010, published 2014)",
  "origin": "cited, not measured here",
  "conditions": "background statement on the marketed peptide",
  "data": [
    {"substance": "enfuvirtide", "values": [
      {"measurement": "in vivo half life", "value": "about 3.8 hours"}
    ]}
  ]
}
